For data set [1], the system named is human APOE RNA. As to the kind of experiment: Dose-dependent inhibition of human APOE RNA in differentiated SH-SY5Y cells, free uptake, 5 days (Example 5). The format is cell-based. As to the method: Modified oligonucleotides selected from the examples above were tested at various doses in differentiated SH-SY5Y cells. The modified oligonucleotides were tested in a series of experiments that had the same culture conditions.
Differentiated SH-SY5Y cells plated at a density of 10,000 cells per well were treated by free uptake with various concentrations of modified oligonucleotide as specified in the tables below. […] APOE RNA levels were measured using the human primer probe set RTS3073 (described herein above). APOE RNA levels were normalized to human PPIA. Human PPIA was amplified using human primer probe set mk_cycloA_2nd (described herein above). Results are presented as percent APOE RNA, relative to the amount of APOE RNA in untreated control cells (% UTC). The half maximal inhibitory concentration (IC50) of each modified oligonucleotide was calculated in GraphPad Prism 10 (GraphPad Software, San Diego, CA) and is also presented in the tables below.

The subject of data set [2] is human APOE RNA. Nature of the data set: Activity in APOE C57BL/6NTac-Apoeem7250 knock-in mice, single ICV bolus, 8 weeks (Example 11). The format is in vivo. Particulars: for APOE RNA (% control) Cortex / APOE RNA (% control) Spinal Cord: single ICV bolus 300 μg, 8 weeks post treatment, normalized to mouse Ppia. The gist of the method:
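Human APOE knock-in C57BL/6NTac mice given one ICV bolus of 300 μg oligonucleotide; PBS-dosed group as control. At 8 weeks, cortex and spinal cord RNA measured by qRT-PCR (human probe RTS3073), normalized to mouse Ppia, expressed as % of PBS control.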

For data set [3], the system named is human APOE RNA. As to the kind of experiment: Activity in APOE C57BL/6NTac-Apoeem7250 knock-in mice, single ICV bolus, 4 weeks (Example 10). The format is in vivo. Particulars: single ICV bolus 300 μg. The method in brief:
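Knock-in mice (2–4 per group) received one 300 μg ICV bolus of oligonucleotide or PBS. After four weeks, human APOE RNA in cortex and spinal cord measured by RT-qPCR (primer probe set RTS3073), normalized to mouse Ppia, expressed as % of PBS controls.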

Data set [4] has as its system human APOE RNA. As to the kind of experiment: Dose-dependent inhibition of human APOE RNA in HepG2 cells, electroporation, 50,000 cells per well, RT-PCR normalized to GAPDH (Example 4, Tables 8-10). The format is cell-based. Particulars: HepG2, electroporation, 24-hour treatment. The method in brief:
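HepG2 cells, 50,000 per well, electroporated with modified oligonucleotide at various concentrations. APOE RNA quantified by RT-PCR with human primer probe set RTS3073, normalized to GAPDH. Values are percent APOE RNA relative to untreated control cells.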

Here are results for 3 substances from US20250353873A1, “COMPOUNDS AND METHODS FOR MODULATING APOE EXPRESSION” (Ionis Pharmaceuticals, Inc., priority 2024, published 2025).

Strand notation (5' to 3'): a small letter for the sugar, then the base; units joined by * are phosphorothioate-linked, units joined directly phosphodiester-linked; [ ] holds rarer units or linkages, { } end groups; capitals alone tell only the bases. [ms] = mesyl phosphoramidate linkage; e = 2'-O-(2-methoxyethyl) (MOE); k = constrained ethyl (cEt); [5mC] = 5-methylcytosine; d = 2'-deoxy (DNA)

The IC50 is the concentration that inhibits the measured activity by half. A higher IC50 goes with weaker potency in that assay. In the case of “Aks^mCeoTeoTesGesGksTdsGdzAdzAdzTds^mCdsTdsTdsTdsAdzTksTksAesAe (kA*e[5mC]eTeT*eG*kG*dT*dG[ms]dA[ms]dA[ms]dT*d[5mC]*dT*dT*dT*dA[ms]kT*kT*eA*eA) [Compound No. 1809635]”, the “APOE RNA (% UTC)” value in the data set with human APOE RNA [1] (5 nM, 5 days (Table 13)) is recorded as 67 % UTC; in the data set with human APOE RNA [1] (13 nM, 5 days (Table 13)), 62 % UTC; in the data set on human APOE RNA [1] (33 nM, 5 days (Table 13)), 52 % UTC; in the data set with human APOE RNA [1] (82 nM, 5 days (Table 13)) it was 43 % UTC; in the data set on human APOE RNA [1] (205 nM, 5 days (Table 13)), 33 % UTC; with human APOE RNA [1] (512 nM, 5 days (Table 13)) it was 27 % UTC. The “APOE RNA (% UTC)” value is 40 % UTC in the data set with human APOE RNA [1] (1,280 nM, 5 days (Table 13)); 28 % UTC in the data set with human APOE RNA [1] (3,200 nM, 5 days (Table 13)); 20 % UTC with human APOE RNA [1] (8,000 nM, 5 days (Table 13)); 20 % UTC with human APOE RNA [1] (20,000 nM, 5 days (Table 13)). The substance also showed a concentration for half-maximal inhibition (IC50) with human APOE RNA [1] (5 days (Table 13)) of 50 nM. The “reduction of human APOE RNA in the cortex” value with human APOE RNA [2] (APOE knock-in mouse model, 8 weeks post administration, assay of Example 11) came to 74%. For the same substance, the “APOE RNA (% control) Cortex” value with human APOE RNA [2] is on record as 26 % control. In the data set on human APOE RNA [2], the “APOE RNA (% control) Spinal Cord” value is 15 % control.

As for “1693105: 6-10-4 MOE gapmer CTTGGTGAATCTTTATTAAA, linkages sosssszzzssssszssss (e[5mC]*eTeT*eG*eG*eT*dG[ms]dA[ms]dA[ms]dT*d[5mC]*dT*dT*dT*dA[ms]dT*eT*eA*eA*eA) [compound 1693105]”, the “APOE RNA (% control) Cortex” value in the data set with human APOE RNA [3] (Cortex, C57BL/6NTac-Apoeem7250 knock-in mice, 4 weeks (Table 21)) came out at 54 % control; in the data set with human APOE RNA [3] (Cortex, C57BL/6NTac-Apoeem7250 knock-in mice, 4 weeks (Table 22)), 65 % control; with human APOE RNA [2], 58 % control. Further, the “APOE RNA (% control) Spinal Cord” value stood at 51 % control in the data set on human APOE RNA [3] (Spinal Cord, C57BL/6NTac-Apoeem7250 knock-in mice, 4 weeks (Table 21)); 87 % control in the data set on human APOE RNA [3] (Spinal Cord, C57BL/6NTac-Apoeem7250 knock-in mice, 4 weeks (Table 22)); 43 % control in the data set with human APOE RNA [2].

Regarding “1746809 (k[5mC]*dT[ms]kT*dG[ms]kG*dT[ms]dG[ms]dA[ms]dA[ms]dT*d[5mC]*dT*dT*dT*dA[ms]dT*dT[ms]kA*kA*kA; antisense) [Compound 1746809]”, the “APOE RNA (% UTC)” value in the data set with human APOE RNA [4] (5 nM) was 91 % UTC; in the data set with human APOE RNA [4] (33 nM), 98 % UTC; in the data set with human APOE RNA [4] (82 nM), 74 % UTC; in the data set on human APOE RNA [4] (205 nM), 81 % UTC; with human APOE RNA [4] (512 nM), 54 % UTC; with human APOE RNA [4] (1,280 nM), 35 % UTC. Also, the “APOE RNA (% UTC)” value is recorded as 33 % UTC in the data set on human APOE RNA [4] (3,200 nM); 23 % UTC with human APOE RNA [4] (8,000 nM); 14 % UTC with human APOE RNA [4] (20,000 nM); 93 % UTC in the data set on human APOE RNA [1] (5 nM, 5 days (Table 14)); 118 % UTC with human APOE RNA [1] (13 nM, 5 days (Table 14)); 80 % UTC in the data set with human APOE RNA [1] (33 nM, 5 days (Table 14)). Also, the “APOE RNA (% UTC)” value amounted to 68 % UTC in the data set with human APOE RNA [1] (82 nM, 5 days (Table 14)); 77 % UTC in the data set on human APOE RNA [1] (205 nM, 5 days (Table 14)); 57 % UTC in the data set with human APOE RNA [1] (512 nM, 5 days (Table 14)); 31 % UTC in the data set with human APOE RNA [1] (1,280 nM, 5 days (Table 14)); 34 % UTC in the data set on human APOE RNA [1] (3,200 nM, 5 days (Table 14)); 12 % UTC with human APOE RNA [1] (8,000 nM, 5 days (Table 14)). In addition, the “APOE RNA (% UTC)” value in the data set on human APOE RNA [1] (20,000 nM, 5 days (Table 14)) amounted to 8 % UTC. For the same substance, the IC50 worked out at 840 nM in the data set on human APOE RNA [4] and 660 nM in the data set on human APOE RNA [1] (5 days (Table 14)). The “APOE RNA (% control) Cortex” value in the data set on human APOE RNA [3] (cortex, 4 weeks post treatment, normalized to mouse Ppia) is 36 % control; in the data set with human APOE RNA [2] it was 47 % control. The “APOE RNA (% control) Spinal Cord” value in the data set on human APOE RNA [3] (spinal cord, 4 weeks post treatment, normalized to mouse Ppia) is recorded as 59 % control; in the data set on human APOE RNA [2], 44 % control.
